{
  "source": "patent US9695192B2",
  "about": "“Fused heterocyclic compounds as ion channel modulators” (GILEAD SCIENCES, INC., priority 2011, dated 2017)",
  "format_in_all_cases": "cell-based",
  "key": {"[1]": {"biological_target": "wild-type human cardiac sodium channel, hNav1.5 (Homo sapiens, UniProt Q14524)", "sequence (Q14524 whole entry)": "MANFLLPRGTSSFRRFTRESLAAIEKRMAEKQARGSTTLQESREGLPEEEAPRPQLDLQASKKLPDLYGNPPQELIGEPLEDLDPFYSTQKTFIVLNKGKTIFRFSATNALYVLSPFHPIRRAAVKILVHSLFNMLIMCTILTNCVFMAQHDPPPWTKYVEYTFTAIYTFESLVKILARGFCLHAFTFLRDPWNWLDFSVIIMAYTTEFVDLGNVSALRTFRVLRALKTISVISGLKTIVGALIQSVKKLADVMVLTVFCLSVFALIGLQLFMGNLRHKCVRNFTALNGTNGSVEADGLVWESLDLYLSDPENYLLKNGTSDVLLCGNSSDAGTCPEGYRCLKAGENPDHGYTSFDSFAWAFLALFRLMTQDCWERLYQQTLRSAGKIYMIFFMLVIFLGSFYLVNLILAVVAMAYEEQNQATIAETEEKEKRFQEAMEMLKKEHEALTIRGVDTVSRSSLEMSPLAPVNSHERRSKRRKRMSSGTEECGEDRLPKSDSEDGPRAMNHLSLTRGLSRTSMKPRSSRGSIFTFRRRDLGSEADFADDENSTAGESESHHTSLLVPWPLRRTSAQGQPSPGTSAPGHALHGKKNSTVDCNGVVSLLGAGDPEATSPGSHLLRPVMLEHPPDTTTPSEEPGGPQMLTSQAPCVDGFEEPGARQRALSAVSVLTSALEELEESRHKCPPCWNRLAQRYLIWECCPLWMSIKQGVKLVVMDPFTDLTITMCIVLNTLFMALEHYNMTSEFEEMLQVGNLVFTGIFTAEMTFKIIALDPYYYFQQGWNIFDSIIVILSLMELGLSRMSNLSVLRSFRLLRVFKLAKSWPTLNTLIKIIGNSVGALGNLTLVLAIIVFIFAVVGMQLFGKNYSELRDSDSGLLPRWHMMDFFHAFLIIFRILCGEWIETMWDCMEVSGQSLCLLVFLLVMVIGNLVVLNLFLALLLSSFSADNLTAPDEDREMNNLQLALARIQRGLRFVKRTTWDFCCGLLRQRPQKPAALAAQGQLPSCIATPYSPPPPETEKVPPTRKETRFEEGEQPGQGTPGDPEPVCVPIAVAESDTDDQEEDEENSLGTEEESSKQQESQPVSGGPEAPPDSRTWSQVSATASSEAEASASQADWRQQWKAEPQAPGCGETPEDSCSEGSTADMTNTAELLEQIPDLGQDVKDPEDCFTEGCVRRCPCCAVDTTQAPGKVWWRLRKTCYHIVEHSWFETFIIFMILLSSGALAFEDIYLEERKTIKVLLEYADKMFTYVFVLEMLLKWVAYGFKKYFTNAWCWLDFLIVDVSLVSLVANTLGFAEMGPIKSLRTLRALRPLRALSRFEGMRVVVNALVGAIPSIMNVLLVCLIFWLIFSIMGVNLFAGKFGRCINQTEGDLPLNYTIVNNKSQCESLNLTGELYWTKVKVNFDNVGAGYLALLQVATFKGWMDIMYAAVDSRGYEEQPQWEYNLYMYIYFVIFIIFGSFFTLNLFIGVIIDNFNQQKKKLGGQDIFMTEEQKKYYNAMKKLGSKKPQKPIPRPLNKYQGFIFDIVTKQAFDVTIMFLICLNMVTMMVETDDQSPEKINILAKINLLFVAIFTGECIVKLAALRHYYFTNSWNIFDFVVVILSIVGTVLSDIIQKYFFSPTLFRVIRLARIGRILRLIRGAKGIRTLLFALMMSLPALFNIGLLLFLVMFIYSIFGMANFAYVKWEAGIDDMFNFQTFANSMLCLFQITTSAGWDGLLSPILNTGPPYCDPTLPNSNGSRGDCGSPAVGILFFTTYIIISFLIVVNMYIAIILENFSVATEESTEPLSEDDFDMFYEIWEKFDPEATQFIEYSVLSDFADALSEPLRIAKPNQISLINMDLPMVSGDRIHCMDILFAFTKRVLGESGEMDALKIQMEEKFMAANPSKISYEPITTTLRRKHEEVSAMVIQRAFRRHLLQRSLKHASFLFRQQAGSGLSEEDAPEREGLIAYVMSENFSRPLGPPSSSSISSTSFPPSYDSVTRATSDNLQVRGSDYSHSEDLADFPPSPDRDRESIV", "test": "Late INa screening assay (QPatch whole cell patch clamp, tefluthrin-enhanced late sodium current)", "settings": "HEK293 hNav1.5, late INa activated with 10 μM Tefluthrin", "how_it_was_run": "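Automated whole-cell patch clamp of HEK293 cells stably expressing hNav1.5 (no β subunits), 23-25 °C. Late current enhanced by 10 μM tefluthrin, 250 ms steps to −20 mV from −120 mV at 0.1 Hz, measured 225-250 ms. Compounds typically 1 μM, three additions over 7-8 min; % block normalised to 0 Na baseline.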"}, "[2]": {"biological_target": "T1, hNav1.2 sodium channel (Homo sapiens, UniProt Q99250)", "T1 construct": "expressed in transfected cells", "T1 sequence (Q99250 whole entry)": "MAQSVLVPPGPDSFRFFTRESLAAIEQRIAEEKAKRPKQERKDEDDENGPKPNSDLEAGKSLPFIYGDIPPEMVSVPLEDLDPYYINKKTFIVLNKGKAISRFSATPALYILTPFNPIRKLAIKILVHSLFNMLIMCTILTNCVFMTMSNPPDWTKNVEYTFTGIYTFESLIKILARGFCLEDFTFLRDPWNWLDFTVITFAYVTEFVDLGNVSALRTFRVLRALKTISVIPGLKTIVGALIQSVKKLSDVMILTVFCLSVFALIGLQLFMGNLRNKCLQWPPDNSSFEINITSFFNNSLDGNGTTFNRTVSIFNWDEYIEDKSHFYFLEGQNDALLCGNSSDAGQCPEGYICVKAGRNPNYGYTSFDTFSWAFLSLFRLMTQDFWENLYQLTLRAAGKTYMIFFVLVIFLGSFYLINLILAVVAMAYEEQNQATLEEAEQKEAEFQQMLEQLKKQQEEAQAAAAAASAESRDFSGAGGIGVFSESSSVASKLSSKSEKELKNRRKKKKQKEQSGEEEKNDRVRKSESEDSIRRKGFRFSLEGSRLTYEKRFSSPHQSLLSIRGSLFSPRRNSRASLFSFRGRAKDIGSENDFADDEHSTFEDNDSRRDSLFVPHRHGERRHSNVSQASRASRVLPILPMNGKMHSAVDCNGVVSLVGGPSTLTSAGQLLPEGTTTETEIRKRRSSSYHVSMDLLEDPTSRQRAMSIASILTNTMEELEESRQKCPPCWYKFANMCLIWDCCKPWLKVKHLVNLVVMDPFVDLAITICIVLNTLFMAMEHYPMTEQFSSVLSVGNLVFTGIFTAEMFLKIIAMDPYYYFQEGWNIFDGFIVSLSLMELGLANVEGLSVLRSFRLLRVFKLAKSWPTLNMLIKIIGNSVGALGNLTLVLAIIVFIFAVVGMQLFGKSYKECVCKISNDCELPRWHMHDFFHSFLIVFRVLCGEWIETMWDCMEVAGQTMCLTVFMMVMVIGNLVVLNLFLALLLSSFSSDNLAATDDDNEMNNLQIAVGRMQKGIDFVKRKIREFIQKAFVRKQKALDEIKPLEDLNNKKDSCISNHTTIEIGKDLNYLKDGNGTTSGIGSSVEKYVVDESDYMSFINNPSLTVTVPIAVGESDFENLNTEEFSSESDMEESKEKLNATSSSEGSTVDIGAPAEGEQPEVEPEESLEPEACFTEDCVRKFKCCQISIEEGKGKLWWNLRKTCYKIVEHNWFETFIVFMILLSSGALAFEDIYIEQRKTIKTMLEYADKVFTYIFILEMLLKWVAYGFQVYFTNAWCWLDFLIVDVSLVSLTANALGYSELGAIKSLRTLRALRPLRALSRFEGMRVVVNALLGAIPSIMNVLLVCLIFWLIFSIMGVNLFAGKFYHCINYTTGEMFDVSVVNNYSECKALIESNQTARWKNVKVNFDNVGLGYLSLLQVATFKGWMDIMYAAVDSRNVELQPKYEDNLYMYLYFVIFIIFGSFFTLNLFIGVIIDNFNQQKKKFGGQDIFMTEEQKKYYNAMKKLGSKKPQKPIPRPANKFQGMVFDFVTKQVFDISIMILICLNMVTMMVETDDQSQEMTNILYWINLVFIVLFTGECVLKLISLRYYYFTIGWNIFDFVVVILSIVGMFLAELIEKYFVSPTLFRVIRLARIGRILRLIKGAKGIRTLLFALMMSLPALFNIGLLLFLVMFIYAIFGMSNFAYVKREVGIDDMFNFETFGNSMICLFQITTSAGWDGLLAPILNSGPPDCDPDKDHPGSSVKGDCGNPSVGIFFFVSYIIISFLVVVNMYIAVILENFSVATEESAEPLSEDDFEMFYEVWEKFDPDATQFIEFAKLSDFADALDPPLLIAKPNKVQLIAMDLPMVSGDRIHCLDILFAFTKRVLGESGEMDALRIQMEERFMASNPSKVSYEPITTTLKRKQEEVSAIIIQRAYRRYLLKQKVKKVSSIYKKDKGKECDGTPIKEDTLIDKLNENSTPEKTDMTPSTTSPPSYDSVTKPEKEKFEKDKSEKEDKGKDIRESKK", "test": "Nav1.2 use-dependent block, whole-cell voltage clamp, 10 Hz pulse train", "settings": "Chantest conditions, read-out: NAV1.2 UDB-10 HZ % Inhibition", "source_text": "Wild-type (WT) cDNA stably transfected in Chinese hamster ovary (CHO) cells is used to record INa. Unless otherwise noted, all reagents are purchased from Sigma-Aldrich (St Louis, Mo., U.S.A.).\nWhole-cell voltage-clamp recordings are used to measure the biophysical properties of WT. Briefly, the pipette solution consists of (in mM) 110 CsF, 10 NaF, 20 CsCl, 2 EGTA, 10 HEPES, with a pH of 7.35 and osmolarity of 300 mOsmol/kg. The bath (control) solution contains in (mM): 145 NaCl, 4 KCl, 1.8 CaCl2, 1 MgCl2, 10 dextrose, 10 HEPES, with a pH of 7.35 and osmolarity of 310 mOsmol/kg. Cells are allowed to stabilize for 10 min after establishment of the whole-cell configuration before current is measured. Series resistance is compensated 90% to assure that the command potential is reached within microseconds with a voltage error<2 mV. Leak currents are subtracted by using an online P/4 procedure and all currents are low-pass Bessel filtered at 5 kHz and digitized at 50 kHz.\nTonic block of peak current is measured using a step to −10 mV (20 ms) from a holding potential of −120 mV (0.2 Hz). Use-dependent block of peak current is measured during pulse number 300 of a pulse train (−10 mV, 5 ms, 300 pulses, 10 Hz or 25 Hz) from a holding potential of −120 mV. Currents are then normalized to the peak current recorded in response to the first pulse in each frequency train. For tonic block studies, peak current is evaluated in response to a 20 ms depolarization to −10 mV (0.2 Hz). Two sequential pulse train stimulations are averaged to obtain mean current traces for each recording condition, which are then used for offline subtraction and analysis.\nA stock solution of 10 mM compound of Formula I is prepared in 0.1 M HCl or DMSO. A fresh dilution of the compound of Formula I in the bath solution is prepared every experimental day and the pH is readjusted to 7.35 as necessary. The final DMSO concentration was kept at 0.1% in all solutions. Direct application of the perfusion solution to the clamped cell is achieved using the Perfusion Pencil system (Automate, Berkeley, Calif.). Direct cell perfusion is driven by gravity at a flow rate of 350 μL/min using a 250 micron tip. This system sequesters the clamped cell within a perfusion stream and enables complete solution exchange within 1 second. The clamped cell is perfused continuously starting immediately after establishing the whole-cell configuration. Control currents are measured during control solution perfusion.\nSolutions are perfused for three minutes prior to current recordings to allow equilibrium (tonic) drug block. Tonic block of peak currents is measured from this steady-state condition. Three sequential current traces are averaged to obtain a mean current for each recording. The mean current traces are utilized for offline analysis."}, "[3]": {"biological_target": "T2, human Nav1.1 (Homo sapiens, UniProt P35498)", "T2 construct": "expressed in transfected cells; host or cells: HEK293, transient transfection (Qiagen Superfect), α1:β1:β2 at 10:1:1", "test": "Nav1.1 use-dependent block, whole-cell voltage clamp, 10 Hz pulse train", "settings": "Chantest conditions, read-out: NAV1.1 UDB-10 HZ % Inhibition"}},
  "data": [
    {"smiles": "FC(F)(F)c1ccc(-c2ccc3c(c2)C(NCc2ccccc2)=NCCO3)cc1", "note": "[II-2, N-benzyl-7-(4-(trifluoromethyl)phenyl)-2,3-dihydrobenzo[f][1,4]oxazepin-5-amine]", "values": [
      {"measurement": "inhibition at 1 µM", "setting": "[1]", "result": 41, "unit": "%"},
      {"measurement": "inhibition at 1 µM", "setting": "[2]", "result": 24, "unit": "%"},
      {"measurement": "inhibition at 1 µM", "setting": "[3]", "result": 9, "unit": "%"}
    ]}
  ]
}
